Here are results for two compounds from US20260314597A1, “A NOVEL APPROACH TO INTERFERE IN THE PHENYLPROPANOID BIOSYNTHETIC PATHWAY TO REDUCE PINK-RIB DISORDER IN FRESH LETTUCE” (University of Florida Research Foundation, Inc., priority 2022, published 2026).

Experiment [1] deals with iceberg and Romaine lettuce midribs. Put plainly: Visual (subjective) pink rib development in wounded, immersed lettuce midribs stored at 5° C. The experiment is classed as in vivo. As to conditions: for effect on pink rib discoloration: iceberg and Romaine; for duration of inhibition of pink rib development: 30 s immersion, 5° C. Here is the method: Six preliminary experiments were performed to determine treatment conditions for the three final experiments reported here. It was determined that the method developed by Cantwell (2016) induced pink rib discoloration in lettuce midribs during storage at 5° C. via mimicking mechanical damage and was, therefore, selected for use in all preliminary and final tests. […] Concentrations evaluated were: L-cysteine (0.4, 0.8, 2.1, 4.1, 8.3 mM), naringenin (0.2, 0.4, 0.9, 1.8, 3.7 mM), serotonin (2.8, 5.7 mM), and melatonin (0.2, 0.4, 1.1, 2.2, 4.3 mM) (data not presented). […] Therefore, this study employed the one or two concentrations for each compound with the greatest potential efficacy in three independent tests, Test 1 to 3 (Table 1).
For Test 1, the evaluations for pink rib development, protein quantification, and enzyme activity were conducted with Romaine and iceberg lettuce heads (36 heads per type; cultivars unknown) purchased (February 2020) upon arrival at a local grocery store in Gainesville, FL, and immediately transported to the Postharvest Horticulture Laboratory at the University of Florida in Gainesville, FL. For Test 2, metabolite extraction and detection were conducted with commercially grown, harvested, and cooled Romaine (‘Tall Guzmaine’) and iceberg (‘Chosen’) lettuce (December 2020) grown in Belle Glade, FL. For Test 3, untargeted metabolomics was performed using commercially grown, harvested, and cooled Romaine (‘Manatee’) lettuce grown in Belle Glade, FL (April 2021). To keep the lettuce head samples cool while preventing freeze damage during transport, a 3- to 6-inch layer of crushed ice was placed on the bottom of each 114-L cooler. A piece of waxed, corrugated fiberboard was placed on top of the ice prior to packing with the lettuce samples for transport the same day to the Postharvest Horticulture Laboratory in Gainesville (approximately 4 h distant).
(§1) In all tests, experimental setup began immediately upon arrival to the laboratory. 90 outer leaves were randomly selected from 18 to 22 lettuce heads that met commercial and damage-free quality standards. A midrib segment (12.5 cm) was excised from the center of each leaf and excess leaf blade tissue was trimmed parallel to the midrib. This procedure was adapted from the wounding procedure of Cantwell (2016). Each midrib was then partially sliced transversally at 1.3-cm increments along the midrib. Midribs (n=15) were immediately immersed for 30 s in one of five treatment solutions: deionized water (wounded control), L-cysteine (4.1 mM), naringenin (1.8 mM) with 20% dimethyl sulfoxide (DMSO), serotonin (2.8 or 5.7 mM) or melatonin (4.3 mM) with 0.50% DMSO. Immediately following immersion, the midribs for each treatment were patted dry using paper towels and placed (n=5) in a breathable, high-density polyethylene bag (n=3) (Narrow Profile Produce Bags [14×18 inches] Model No. S-19156, Uline®, Pleasant Prairie, WI). Unwounded control midribs were stored in the same manner. To allow for direct comparison, each cut site on each midrib was assigned an initial discoloration value on day 1 based on the coloration of the rib. Samples were stored at 5° C. with 95-98% relative humidity (RH) for 5 d, simulating commercial storage.
All chemicals were of laboratory or reagent grade from Alfa Aesar (Thermo Fisher Scientific, Ward Hill, MA, USA) or Phyto Technology Laboratories (Shawnee Mission, KS, USA). L-cysteine (4.1 mM) solution was prepared by dissolving […] in 100 ml deionized water. Naringenin (1.8 mM) solution was prepared by dissolving […] in 20 mL of DMSO and diluting to a 100 mL volume with deionized water. A stock solution of serotonin (5.7 mM) was prepared by dissolving 100 mg of serotonin in 100 ml of deionized water; a second solution of serotonin (2.8 mM) was prepared by diluting the stock solution two-fold with deionized water. […]

For experiment [2], the system named is phenylalanine ammonia-lyase (PAL). Put plainly: PAL activity in crude protein extracts of treated wounded midribs. Format: biochemical, lettuce (iceberg, Romaine). As to conditions: 5 d at 5° C.; for PAL activity: L-cysteine 4.1 mM or melatonin 4.3 mM; for effect on PAL activity: iceberg and Romaine, vs wounded control.
Text: as §1
PAL activity was measured using a crude protein extraction following a method reported by Kim et al. (2020) with some modifications. Fresh lettuce samples (300 mg) were ground with liquid nitrogen in a pre-chilled mortar and pestle. A 0.1 mM Tris-HCl buffer (pH 8.3) was added at a 1:1 (w:v). The solution was incubated at 4° C. for 1 h and then centrifuged at 4° C., 9660×g for 15 min. Supernatants were collected in chilled tubes. Total protein content was measured using Quick Start Bradford protein assay kit (Bio-Rad, Hercules, CA, USA) and Bovine Serum Albumin (BSA) as a standard (10 mg mL^−1 in deionized water). Protein concentration was calculated based on the absorbance at 595 nm measured with a NanoDrop (One Microvolume UV-Vis Spectrophotometer, Thermo Scientific, Wilmington, DE, USA) and the standard curve. For the PAL activity test, 150 μL aliquots of the protein extract were incubated in a reaction buffer containing 0.1 mM Tris-HCl buffer (pH 8.3), 5 mM dithiothreitol (DTT), and 5 mM phenylalanine. Reaction mixtures were incubated at 37° C. for 90 min and stopped with the addition of 40 μL of 30% acetic acid. Reaction products were extracted with 600 μL of ethyl acetate and then centrifuged at 22° C., 9660×g for 5 min. The supernatant was dried in a speed vac and re-dissolved in 100 μL of 50% methanol. The final extract (10 μL) was analyzed by HPLC using the method previously described in Section 2.4.
The imaging data (a* value), enzyme activity (PAL and PPO), and metabolite (chlorogenic acid) results were expressed as mean±standard error and analyzed by lettuce type (iceberg or Romaine). For imaging data, an unpaired t-test was used to identify differences within a treatment throughout storage and among treatment groups at each time point. Treatment groups were defined as wounded, unwounded, L-cysteine, and melatonin. […] Analyses of variance were performed for PAL, PPO, and metabolite analyses using SAS software (version 9.4; SAS Institute, Cary, NC) to identify differences among treatment groups. Differences among treatments groups were separated by Tukey's Honest Significant Difference (HSD) test with a confidence level of 95%. The correlation between visual rating and a* value was evaluated for significance via an F-test, from which the P-value of the correlation was calculated.

“Also recorded” adds a separate entry of the source.

For the compound `N[C@@H](CS)C(=O)O` [L-cysteine], the “effect on pink rib discoloration” value in experiment [1] (L-cysteine 4.1 mM, up to 5 d at 5° C., vs wounded control) is given as “negligible effect on reducing pink rib; also recorded: equal or greater discoloration; also recorded: significantly higher discoloration than the control after 5 d; also recorded: ineffective in reducing pink rib; also recorded: neither PPO activity nor pink rib expression were reduced”. The PAL activity in experiment [2] (Romaine, wounded control 9.56) is on record as 11.07 pkat mg^−1; in experiment [2] (iceberg, wounded control 6.73), 5.43 pkat mg^−1. The “effect on PAL activity” value in experiment [2] is given as “no significant reduction in PAL activity”.

Take `COc1ccc2[nH]cc(CCNC(C)=O)c2c1` [melatonin]: the “duration of inhibition of pink rib development” value was 3 days in experiment [1] (melatonin 4.3 mM, Romaine, vs wounded control) and 5 days in experiment [1] (melatonin 4.3 mM, iceberg, vs wounded control). In experiment [1] (melatonin 4.3 mM, Romaine, over 5 d at 5° C. (P=0.0058)), the “pink rib discoloration (visual)” value is on record as “slight (2=slight)”. The “effect on pink rib discoloration” value in experiment [1] (melatonin 4.3 mM, 5 d at 5° C., vs controls) was “equal to or similar to unwounded controls; also recorded: dramatically less pink rib discoloration”. For the same compound, the PAL activity in experiment [2] (Romaine, wounded control 9.56) was 6.06 pkat mg^−1; in experiment [2] (iceberg, wounded control 6.73), 7.44 pkat mg^−1. In addition, the “effect on PAL activity” value in experiment [2] is “no significant reduction in PAL activity; also recorded: neither enzyme activity (PAL or PPO) nor chlorogenic acid concentration were impacted; also recorded: did not significantly affect PAL or PPO enzyme activities”.
